Data: patent publication US8334107B2, “Detection systems utilizing supported lipid bilayers” (priority 2005, dated 2012)

Assays:
[1] = test system: DMPG lipid bilayer on MS-PPE; assay: Disruption of DMPG lipid bilayer on MS-PPE detected by superquenching with AQS, flow cytometry; type: biochemical; settings: 10 μM AQS; sMLT 3.8 μM, nMLT 1.6 μM
Procedure: Lipid bilayers were disrupted by adding Triton X-100® detergent to the bead suspension to a final concentration of 0.25% (w/v).
Bead suspensions of 2.5×10^5 PPE-coated microspheres in 200 μL PBS were analyzed using a FACScan flow cytometer (Becton-Dickinson, Sunnyvale, Calif.) with excitation at 488 nm. Fluorescence signals were acquired on the FL-1 channel (525 nm) using log amplification and analyzed with the CellQuest software.
(§1) Bead suspensions of 2.5×10^5 DMPG-coated MS-PPE in 200 μL of PBS were analyzed using a FACScan flow cytometer (Becton-Dickinson, Sunnyvale, Calif.) with excitation at 488 nm. Fluorescence signals were acquired on FL-1 channel (525 nm) using log amplification and analyzed with the CellQuest software. Kinetic analysis of disruption of supported lipid bilayer by melittin was performed by acquiring real-time data with continuous mixing of samples (10^6 MS-PPE in 800 μl of PBS) using a magnetic stirrer. The raw data were analyzed using IDL Query software developed by Bruce Edwards (Cancer Center, University of New Mexico, Albuquerque, N. Mex.).
Because an anionic lipid was used to form a lipid bilayer around MS-PPE, it was expected that MLT will disrupt the DMPG lipid bilayer by such a detergent-like action. This was tested by adding 10 μM AQS to DMPG-coated MS-PPE followed by treatment with one of the following: Triton X-100® detergent, synthetic MLT (sMLT), or natural MLT (nMLT) and immediately reading the fluorescence by flow cytometry. […] These histograms resemble the ones reported previously for MS-PPE, without a lipid coating, in absence and in presence of AQS.
The kinetics of disruption of supported lipid bilayer by MLT were monitored by measuring real-time changes in fluorescence intensity by flow cytometry (FIG. 19). Suspensions of 10^6 DMPG-coated MS-PPE in 800 μL of PBS were treated with AQS at a final concentration of 10 μM, then with either sMLT, Triton X-100® detergent, or no treatment. […] Treatment with sMLT in the absence of AQS led to an increase in normalized fluorescence (FIG. 19, trace A). This can be attributed to disruption of the lipid bilayer by sMLT, and is consistent with a reversal of the slight quenching of fluorescence caused by the formation of a DMPG lipid bilayer over MS-PPE. Addition of AQS alone to DMPG-coated MS-PPE (FIG. 19, trace C) led to a 20% reduction in fluorescence as reported earlier. Addition of Triton X-100® detergent to DMPG-coated MS-PPE after the addition of AQS (first dip in trace E, FIG. 19) caused immediate decrease in fluorescence to ˜10% of its original value (second dip in trace E, FIG. 19). In contrast, addition of sMLT, after the addition of AQS, (FIG. 19, trace D) led to a gradual reduction of fluorescence intensity to ˜20% of the original value. Although MLT forms dimers at high concentrations (Dempsey, C. E. Biochim. Biophys. Acta 1990, 1031, 143-161), it is monomeric at the concentrations used in this study. On the other hand, Triton X-100® detergent forms micelles at the concentration used in this study.

DMPG supported on MS-PPE = assay: Binding curves of MLT to DMPG supported on MS-PPE (superquenching flow cytometric assay); settings: flow cytometry, 10 μM AQS
Procedure: FIGS. 18A-B show binding curves for MLT-disruption of supported lipid bilayer by natural MLT (nMLT; FIG. 18A), and synthetic MLT (sMLT; FIG. 18B). Fluorescence intensity was normalized to that without MLT as determined by flow cytometry. The error bars represent the standard deviation (SD) of the means of normalized histograms obtained for 3 replicates.
as §1
From FIG. 18, the association constant (corresponding to the reciprocal of the point of half saturation) for nMLT and sMLT with DMPG were 5×10^6 M^−1 and 1.7×10^6 M^−1, respectively. […] Lower concentrations of nMLT, in comparison to sMLT, were required to disrupt the DMPG lipid bilayer. This might be attributed to the fact that nMLT contains some phospholipase A2 (PLA2) as a contaminant. […]

[2] = test system: DMPG bilayer on PPE-coated beads; assay: Microfluidic assay: detection of lipid bilayer disruption by fluorescence superquenching; type: biochemical; settings: injected as 1:1 mixture with 120 μM AQS
Procedure: The preparation of microcolumns with PPE-coated, silica beads was similar to that of with fluorescein containing beads. A 10 μL aliquot of 120 μM AQS was injected to the column. After a certain period of time, a 10 μL aliquot of 1:1 mixture of 120 μM AQS and 220 μM melittin was injected. During this process, the PPE-coated silica bead segment was irradiated at 488 nm and its fluorescence emission intensity was measured at 520 nm every 10 minutes. This experiment was repeated, while injecting 220 μM melittin first, and then 120 μM AQS.
The feasibility of using superquenching as a method of detecting membrane-toxin interactions in microcolumns was also investigated. The fluorescence intensity of the cationic polyelectrolyte poly(p-phenylene-ethynylene) polymer (PPE) can be super-quenched by the quencher 9,10-anthraquinone-2,6-disulfonic acid (AQS). […] It has been observed in flow cytometric studies that formation of DMPG membranes on PPE-coated beads will quench the PPE fluorescence to some extent. The initial rise in fluorescence intensity was probably due to the unquenching of the PPE, due to the removal of lipid bilayers from PPE-coated beads through melittin interaction, whereas the decrease in fluorescence corresponded to superquenching of PPE by AQS after disruption of DMPG bilayer by melittin. […]

[3] = test system: EPC bilayer on porous silica beads; assay: Suspension study: release of fluorescein dye from lipid bilayer coated porous silica beads; type: biochemical; settings: all three concentrations 15, 45 and 250 μg/mL
Procedure: Lipid coatings on beads were disrupted using 10% Triton X-100. Each sample in micro-centrifuge tubes contained 5 mg of lipid bilayer coated, fluorescein entrapped beads in 200 μL of Tris buffer. Samples were centrifuged and 100 μL aliquots of supernatant were mixed with either 100 μL of Tris buffer or 100 μL of 10% Triton X-100® detergent in separate centrifuge tubes. The fluorescence intensity of each mixture was immediately (time=0) recorded. Each mixture was mixed with its respective bead sample in centrifuge tube and incubated at 25° C. in the dark. After 30 min, samples were centrifuged and fluorescent intensity of the supernatants was measured. Beads were resuspended in their respective supernatants. Fluorescence intensity was again measured at 90 and 150 min.
Experimental procedures were similar to the Triton X-100® detergent based analysis. For experiments with α-toxin, three different toxin concentrations: 15, 45 and 250 μg/mL were used at 37° C. and 25° C. Beads coated with EPC were used. In the experiments with melittin, 220 μM melittin was used with beads coated with either 100% EPC, 10:90 (molar ratio) mixture of DMPG and EPC or an 80:20 mixture of DMPG and DMPC. All melittin experiments were conducted at 25° C.
Previous suspension studies on disruption of lipid bilayers have been performed with small unilamellar vesicles where disruption of the lipid bilayer membranes was detected by monitoring the unquenching of a highly concentrated, encapsulated dye. In the present work disruption was monitored via release of fluorescein dye from porous beads, by measuring the increase in fluorescence intensity of the supernatant at 520 nm. Beads were first suspended in Tris buffer containing the disruptor. After selected time periods, beads were sedimented by centrifuging and a portion of the supernatant was taken for the measurement. The measured portion was added back to the bead sample to permit continuous monitoring. The scattering effect that was present in vesicle based studies was minimized by measuring only the supernatant after centrifugation of the beads.

[4] = test system: supported lipid bilayer surrounding a porous bead; assay: Kinetics of disruption of supported lipid bilayer by α-toxin, pH-reactive fluorescein in porous beads, flow cytometry; type: biochemical; settings: pH outside 11.0, inside 2.6
Text: FIGS. 4A-B illustrates the effects of alpha-toxin on lipid bilayer integrity. FIG. 4A graphically illustrates dose-dependent release of fluorescent dye from a lipid bilayer coated microbead after introduction of different concentrations of alpha-toxin, a membrane-associated pore-forming protein from Staphylococcus aureus. The normalized fluorescence intensity (at 520 nm) of the supernatant is plotted versus time for EPC-coated, fluorescein filled porous beads when using different concentrations of α-toxin added. 10% Triton was added after 150 min. FIG. 4B illustrates the kinetics of disrupting a supported lipid bilayer by α-toxin as monitored by recording changes in fluorescence intensity every 2 minutes by flow cytometry. The lipid bilayer surrounded a porous bead that contains a pH-reactive molecule (fluorescein), and the pH outside the beads was adjusted to 11.0, whereas inside the beads the pH was 2.6. As illustrated, increasing amounts of α-toxin increases the fluorescence emitted from within the beads.
In another experiment a lipid bilayer surrounding a porous bead that contains a pH-reactive molecule (fluorescein) was exposed to α-toxin. The pH outside the beads was adjusted to 11.0, whereas inside the beads the pH was 2.6. The kinetics of disruption of supported lipid bilayer by α-toxin were monitored by recording changes in fluorescence intensity every 2 minutes by flow cytometry. For the first 8 minutes there was no significant change in fluorescence intensity (FIG. 4B). However, after 8 minutes there was a gradual increase in fluorescence intensity (FIG. 4B) resulting from insertion of α-toxin into the supported lipid bilayer thus forming channels permeable to hydrogen cations and hydroxyl ions, which reduces the difference in the pH outside and inside the microspheres. […] This can be attributed to insertion of many α-toxin channels at this high concentration leading to disruption of the lipid bilayer and immediate equilibration of the pH inside and outside the porous microspheres.

EPC vesicles = settings: incubation with α-toxin; cited from earlier work

Row | Substance | quenching of the MS-PPE after treatment [1] | association constant (reciprocal of the point of half saturation) with DMPG (DMPG supported on MS-PPE) [M⁻¹] | change in fluorescence intensity of bead segment [2] | increase in fluorescence intensity after 150 min ([3]; 25° C.) | increase in fluorescence intensity after 150 min ([3]; 37° C.) | change in fluorescence intensity ([4]; 45 μg/mL) | concentration at which the increase in fluorescence intensity reached its maximum [4] [µg/mL] | time without significant change in fluorescence intensity before gradual increase ([4]; read every 2 minutes) [min] | dye encapsulated in EPC vesicles released (EPC vesicles) [%]
1 | nMLT: natural melittin from Sigma, contains some phospholipase A2 as a contaminant | comparable to that occurring on addition of Triton X-100 | 5e+06 | slight rise in fluorescence intensity followed by a significant decrease | – | – | – | – | – | –
2 | α-toxin: membrane active pore-forming protein secreted by Staphylococcus aureus, ~33 kDa | – | – | – | about 3 fold | about 6.5 fold | did not cause a change in fluorescence intensity different from the baseline | 15 | 8 | 27
